Measurements from patent EP0257993B1, “Nucleic acid fragment encoding herbicide resistant plant acetolactate synthase” (priority 1986, dated 1988).

Assays:
[1] = test system: Cells of N.tabacum cv. W38; test: Level of chlorsulfuron resistance in transformed N. tabacum colonies; type: cell-based
tobacco callus = test: Growth of tobacco mutant callus (C3, S4, Hra) on herbicide; type: cell-based, Nicotiana tabacum var. Xanthi; conditions: Hra cell line
Procedure: (§1) Callus cultures of sensitive tobacco (Nicotiana tabacum var. Xanthi) were exposed to sulfometuron methyl at 2 ppb according to the method described by Chaleff, U.S. 4,443,971. […] Plants were regenerated from Hra callus cultures. […] ALS activity in extracts of leaves of wild type and homozygous Hra mutant tobacco plants was determined.

alfalfa callus = test: Resistant growth of transformed alfalfa callus and tissue; type: cell-based, Medicago sativa cv. Rangelander
Procedure: These explants were dipped into a log phase Agrobacterium culture prepared as described in EXAMPLE I, transferred to fresh co-cultivation plates, and cultured at 24°C with 16 hr. days for 3 days.
The bacteria were killed by washing the explants for 3 hrs. with gentle agitation in washing media, and cultured on fresh selection plates.
The explants were subcultured every 3-4 weeks. […] When callus became more organized, (areas are darker green and more compact) it was transferred to fresh maturation media.

[2] = test system: Sensitive N. tabacum Cells; test: Co-cultivation of N. tabacum protoplasts with A. tumefaciens, colony formation on selective media; type: cell-based, Nicotiana tabacum var. Wisconsin 38; conditions: for Number of Colony Forming Units derived from 10^5 Protoplast Equivalents One Month after Co-cultivation: Table 7
Procedure: Sterile tobacco (Nicotiana tabacum var. Wisconsin 38) plants were cultured from 1 cm apical or auxillary explants on OMS Medium in Magenta Boxes under a cycle of a 16 hour light period (6,000-8,000 lux) followed by an 8 hour dark period. When the plants were 5-7 weeks old, fully expanded leaves (3-6 leaves down from the apex) were removed, and two leaves each were placed, top surface down, on 20 mL of protoplast isolation medium in a 100 x 25 mm petri dish. The leaves were then submerged and finely divided with a sharp surgical blade. The midrib was held and the cuts were made outward from it towards the leaf margin at approximately 2 mm intervals. The petri dishes were then sealed with parafilm and the macerated tissue incubated overnight (14-17 hours) in darkness at 27-29°C with gentle gyrotory agitation (20-25 rpm).
The glass tubing was placed in a Babcock bottle, and the cheesecloth was wetted with K3/S(1) Medium. The digested leaf tissue from two petri dishes was carefully poured into the funnel. The cheesecloth was rinsed and expressed into the bottle. The loaded bottles were topped with K3/S(1) Medium, covered with foil and centrifuged at approximately 100 x g for 10 minutes. The floating protoplasts (1-2 mL) were collected with a 1 mL serological pipette and placed in 20 mL of K3/S(1) Medium in another Babcock bottle. After resuspending the protoplasts by gently swirling, the Babcock bottles were topped and centrifuged as before. The floating protoplasts (1-2 mL) were collected as described above and placed in 30 mL of K3/G(1) Medium. The protoplasts were counted in a hemacytometer, and the volume was adjusted to give 1 x 10^+5 protoplasts/mL. 5 mL aliquots of the protoplasts were plated in petri dishes [100 x 20 mm tissue-culture petri dishes (Corning); these dishes were used in all subsequent protoplast manipulations] and cultured in darkness.
When the optical density (at 550 nm) of the A. tumefaciens cultures was 0.6 (log phase culture), approximately 6 hours after dilution, the bacteria were added to plant cells at a multiplicity of approximately 50 bacteria/plant cell (an optical density of 1.0 at 550 nm = 1.4 x 10^9 bacteria). The bacteria and plant cell mixture was co-cultivated for 66 hours at 24°C in low light (approximately 500 lux). Non-transformed protoplast controls were incubated similarly, but without agrobacteria. The following protocol is carried out for each co-cultivation (transformed cells with different agrobacteria, as well as non-transformed cells).
Co-cultivation was terminated by adding 20 mL of a 1:1 mixture of K3/G(2) Medium:C Medium supplemented with 500 mg/liter of cefotaxime (to select against the agrobacteria) to 5 mL of the co-cultivation mixture. The co-cultivated cells were gently and thoroughly resuspended in the new medium by mixing with a 5 or 10 mL serological pipette. The cell density was 2 x 10^4 protoplast equivalents/mL (protoplast equivalents = initial protoplasts, assuming 100% recovery and cell survival) and the osmoticum was 0.35 M. Three 5 mL aliquots of each culture were dispensed into fresh petri dishes.
From this juncture until the cells were embedded in solid medium, the cells were cultured in low light (500-1500 lux) without motion and were aseptically transferred to different media. […] For these transfers, the contents of each plate were collected with a 5 mL serological pipette, placed in separate 15 mL polystyrene conical centrifuge tubes and centrifuged at approximately 50 x g for 5-10 minutes. The supernatant fluid was removed with a pipette without disrupting the loose pellet. Pellets of co-cultivated cells from each plate were then gently resuspended in the appropriate fresh medium.
Each of these cultures was returned to the petri dishes from which they were taken; in this way not all cells needed to be pelleted to effect a medium exchange with minimal cell loss.

ALS = type: biochemical, Nicotiana tabacum; conditions: C3 and S4 lines
Procedure: as §1

tobacco plant cells = test: Herbicide resistance in plant cells transformed with site specific mutant sugarbeet ALS gene; type: cell-based; conditions: 2x10^5 starting plant cells; for Chlorsulfuron^R: chlorsulforon at 2ppb; for Kanamycin^R: kanamycin at 50ppm
Procedure: Introduction of the ALS genes into herbicide sensitive tobacco and sugarbeet, by co-cultivation of the plant cells with A. tumefaciens carrying the ALS genes in the binary vector, was performed as described in EXAMPLE I and EXAMPLE II. Herbicide resistant transformants were obtained with three of the four mutant sugarbeet ALS genes. The frequency of obtaining herbicide resistant transformants was lower than that for kanamycin resistant transformants, and also lower than the frequency of herbicide resistant transformants obtained when the tobacco SURB-Hra gene was used. […] This may reflect either insufficient nucleotide regulatory sequences upstream or downstream of the mutant sugarbeet ALS genes in the DNA fragments used or poor utilization of sugarbeet nucleotide regulatory sequences in tobacco or both. […]
Gene introductions were done by standard co-cultivation method. […] Selection was with chlorsulforon at 2ppb or kanamycin at 50ppm.

melon callus = test: Kanamycin selection of melon cotyledon explants; type: cell-based, Cucumis melo cv. Amarillo Oro; conditions: kanamycin at 100µm/l
[3] = test system: Brassica napus callus tissue; test: Kanamycin selection of Brassica napus hypocotyl explants; type: cell-based, Brassica napus cv. Olga; conditions: of 100 wound sites; kanamycin 100 mg/L
[4] = Gene Origin Sugarbeet, ala(122)-pro
[5] = Gene Origin Sugarbeet, pro(197)-ala/trp(591)-leu
[6] = Gene Origin Sugarbeet, pro(197)-ala
[7] = Gene Origin Sugarbeet, trp(591)-leu
[8] = Gene Origin Tobacco, pro(197)-ala/trp(591)-leu

COc1nc(C)nc(NC(=O)NS(=O)(=O)c2ccccc2Cl)n1 [chlorsulfuron]
chlorsulfuron resistance conferred in transformed tobacco calluses ([1]; 8.3 kb DNA fragment (SURB-Hra)): up to 2000 ppb
concentration colonies could tolerate ([1]; colonies derived from co-cultivation with A. tumefaciens containing pAGS152): up to 2000 ppb
concentration at which colonies are sensitive ([1]; wild type colonies): 2 ppb
cross resistance of cell line (tobacco callus): cross resistant
resistance of kanamycin resistant sectors (alfalfa callus; chlorsulfuron at 50 ppb): resistant
chlorsulfuron concentration at which transformant tissue was able to grow (alfalfa callus; one transformant): 1000 ppb
chlorsulfuron concentration at which transformant tissue was able to grow (alfalfa callus; the other two transformants): 5000 ppb
chlorsulfuron resistance conferred in transformed tobacco calluses ([2]; 6.3 kb DNA fragment (SURA-C3)): 2 ppb
Number of colony forming units derived from 10^5 protoplast equivalents one month after co-cultivation ([2]; Table 4, N.t. (non-cocultured control plant cells), Chlorsulfuron 2 ng/mL): 0
Number of colony forming units derived from 10^5 protoplast equivalents one month after co-cultivation ([2]; Table 4, N.t./P145 (pAGS145, herbicide-sensitive ALS from phage clone 1), Chlorsulfuron 2 ng/mL): 0
Number of colony forming units derived from 10^5 protoplast equivalents one month after co-cultivation ([2]; Table 5, N.t. (non-cocultured control plant cells), Chlorsulfuron 2 ng/mL): 0
Number of colony forming units derived from 10^5 protoplast equivalents one month after co-cultivation ([2]; Table 5, N.t./P112 (pAGS112, kanamycin resistance vector), Chlorsulfuron 2 ng/mL): 0
Number of colony forming units derived from 10^5 protoplast equivalents one month after co-cultivation ([2]; Table 5, N.t./p152 (pAGS152, phage clone 3), Chlorsulfuron 2 ng/mL): 6.5 x 10^2
Number of Colony Forming Units derived from 10^5 Protoplast Equivalents One Month after Co-cultivation ([2]; N.t. (non co-cultured plant cells), Chlorsulfuron 2 ng/ml): 0
Number of Colony Forming Units derived from 10^5 Protoplast Equivalents One Month after Co-cultivation ([2]; N.t./P312 (pAGS312, C3 subclone, φ31 orientation 1), Chlorsulfuron 2 ng/ml): 0
Number of Colony Forming Units derived from 10^5 Protoplast Equivalents One Month after Co-cultivation ([2]; N.t./p152 (pAGS152, S4/Hra subclone), Chlorsulfuron 2 ng/ml): 83
Number of Colony Forming Units derived from 10^5 Protoplast Equivalents One Month after Co-cultivation ([2]; N.t./p313 (pAGS313, C3 subclone, φ31 orientation 2), Chlorsulfuron 2 ng/ml): 0
Number of Colony Forming Units derived from 10^5 Protoplast Equivalents One Month after Co-cultivation ([2]; N.t./p351 (pAGS351, C3 subclone, φ35), Chlorsulfuron 2 ng/ml): 32
Number of Colony Forming Units derived from 10^5 Protoplast Equivalents One Month after Co-cultivation ([2]; N.t./p381 (pAGS381, C3 subclone, φ38), Chlorsulfuron 2 ng/ml): 18
resistance of ALS enzyme activity compared with ALS from wild type (ALS): one-hundred fold
Chlorsulfuron^R (tobacco plant cells; [4]): 0
Chlorsulfuron^R (tobacco plant cells; [5]): 91
Chlorsulfuron^R (tobacco plant cells; [6]): 35
Chlorsulfuron^R (tobacco plant cells; [7]): 2
Chlorsulfuron^R (tobacco plant cells; [8]): 698

NC[C@H]1O[C@H](O[C@H]2[C@H](O)[C@@H](O[C@H]3O[C@H](CO)[C@@H](O)[C@H](N)[C@H]3O)[C@H](N)C[C@@H]2N)[C@H](O)[C@@H](O)[C@@H]1O [Kanamycin]
explants that developed callus resistant to kanamycin (melon callus): Approximately 70%
explants that developed callus resistant to kanamycin (alfalfa callus; kanamycin at 100mg/L): Less than 1%
Number of colony forming units derived from 10^5 protoplast equivalents one month after co-cultivation ([2]; Table 4, N.t. (non-cocultured control plant cells), Kanamycin 50 µg/mL): 0
Number of colony forming units derived from 10^5 protoplast equivalents one month after co-cultivation ([2]; Table 4, N.t./P145 (pAGS145, herbicide-sensitive ALS from phage clone 1), Kanamycin 50 µg/mL): 5.9 x 10^2
Number of colony forming units derived from 10^5 protoplast equivalents one month after co-cultivation ([2]; Table 5, N.t. (non-cocultured control plant cells), Kanamycin 50 µg/mL): 0
Number of colony forming units derived from 10^5 protoplast equivalents one month after co-cultivation ([2]; Table 5, N.t./P112 (pAGS112, kanamycin resistance vector), Kanamycin 50 µg/mL): 2.5 x 10^3
Number of colony forming units derived from 10^5 protoplast equivalents one month after co-cultivation ([2]; Table 5, N.t./p152 (pAGS152, phage clone 3), Kanamycin 50 µg/mL): 6.2 x 10^2
Number of Colony Forming Units derived from 10^5 Protoplast Equivalents One Month after Co-cultivation ([2]; N.t. (non co-cultured plant cells), Kanamycin 50 ug/ml): 0
Number of Colony Forming Units derived from 10^5 Protoplast Equivalents One Month after Co-cultivation ([2]; N.t./P312 (pAGS312, C3 subclone, φ31 orientation 1), Kanamycin 50 ug/ml): 65
Number of Colony Forming Units derived from 10^5 Protoplast Equivalents One Month after Co-cultivation ([2]; N.t./p152 (pAGS152, S4/Hra subclone), Kanamycin 50 ug/ml): 88
Number of Colony Forming Units derived from 10^5 Protoplast Equivalents One Month after Co-cultivation ([2]; N.t./p313 (pAGS313, C3 subclone, φ31 orientation 2), Kanamycin 50 ug/ml): 48
Number of Colony Forming Units derived from 10^5 Protoplast Equivalents One Month after Co-cultivation ([2]; N.t./p351 (pAGS351, C3 subclone, φ35), Kanamycin 50 ug/ml): 139
Number of Colony Forming Units derived from 10^5 Protoplast Equivalents One Month after Co-cultivation ([2]; N.t./p381 (pAGS381, C3 subclone, φ38), Kanamycin 50 ug/ml): 87
wound sites that developed callus tissue resistant to kanamycin [3]: 20
Kanamycin^R (tobacco plant cells; [4]): 415
Kanamycin^R (tobacco plant cells; [5]): 1362
Kanamycin^R (tobacco plant cells; [6]): 1073
Kanamycin^R (tobacco plant cells; [7]): 1080
Kanamycin^R (tobacco plant cells; [8]): 1083
